According to paper PMC12163822, “Synthesis and Pharmacological Characterization of a Novel Cannabinoid Receptor 1 Antagonist” (ACS Omega, 2025):
“Also recorded” adds a separate entry of the source.

Assays:
[1] = biological target: CB1 receptor (Rattus norvegicus, UniProt P20272); assay: Functional [35S]GTPγS autoradiography in rat brain slices; format: biochemical, Sprague-Dawley rat; parameters: fresh frozen sections from brain samples from wild-type; from tissue; host or cells: Sprague-Dawley rat brain sections; settings: for [35S]GTPγS binding, Stimulation (% over basal), CP55,940 + UVI3502 / [35S]GTPγS binding, Stimulation (% over basal): rat; for [35S]GTPγS binding, Stimulation (% over basal), CP55,940 + UVI3502: CP55,940 and UVI3502 both at 10 µM; for [35S]GTPγS binding, Stimulation (% over basal): compound alone 10 µM
CB1 receptor (Rattus norvegicus, UniProt P20272), sequence (P20272 whole entry): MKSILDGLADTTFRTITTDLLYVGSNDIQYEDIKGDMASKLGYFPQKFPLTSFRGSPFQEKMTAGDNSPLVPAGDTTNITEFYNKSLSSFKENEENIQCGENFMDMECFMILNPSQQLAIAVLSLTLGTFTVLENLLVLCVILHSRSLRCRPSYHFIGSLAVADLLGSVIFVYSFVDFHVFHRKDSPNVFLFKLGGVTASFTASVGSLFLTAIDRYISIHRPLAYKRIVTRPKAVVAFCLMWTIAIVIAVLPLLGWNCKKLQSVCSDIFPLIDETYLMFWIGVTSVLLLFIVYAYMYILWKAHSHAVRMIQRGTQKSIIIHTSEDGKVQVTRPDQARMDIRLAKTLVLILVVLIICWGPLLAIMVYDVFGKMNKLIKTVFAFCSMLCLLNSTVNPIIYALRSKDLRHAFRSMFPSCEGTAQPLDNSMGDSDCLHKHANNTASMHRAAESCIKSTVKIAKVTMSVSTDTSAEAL
Method: All brain sections were air-dried for 30 min and then immersed in Coplin jars for preincubation (4 times, 15 min each time) in an HEPES-based buffer (50 mM HEPES, 100 mM NaCl, 3 mM MgCl2, 0.2 mM EGTA, 0.5% BSA; pH 7.4) at 30 °C. The objective of this preincubation was the removal of endogenous ligands. […] Basal [^35S]-GTPγS binding was defined in the absence of the agonists in two consecutive slices. To define nonspecific binding, 10 μM of unlabeled GTPγS was added to the incubation in another section. Following incubation, slices were twice washed in an ice-cold 50 mM HEPES buffer (pH 7.4), dried, and exposed for 48 h to β-radiation sensitive film with a set of [^14C] standards calibrated for [^35S]. Calibrated films were scanned and quantified using Fiji software (Fiji, Bethesda, […], USA). The signal corresponding to nonspecific binding was previously subtracted from the basal and agonist-stimulated binding. Then, the data was expressed as the percentage of stimulation over basal following the formula: ([^35S]-GTPγS agonist-stimulated binding) × 100/([^35S]-GTPγS basal binding)-100.

[2] = biological target: T1, CB2 receptor (Rattus norvegicus, UniProt Q9QZN9); assay: [3H]CP55,940 inhibition curves in rat spleen membrane homogenates (CB2-enriched); format: binding, Sprague-Dawley rat
T1 construct: from tissue; host or cells: Sprague-Dawley rat spleen
T1 sequence (Q9QZN9 1-360): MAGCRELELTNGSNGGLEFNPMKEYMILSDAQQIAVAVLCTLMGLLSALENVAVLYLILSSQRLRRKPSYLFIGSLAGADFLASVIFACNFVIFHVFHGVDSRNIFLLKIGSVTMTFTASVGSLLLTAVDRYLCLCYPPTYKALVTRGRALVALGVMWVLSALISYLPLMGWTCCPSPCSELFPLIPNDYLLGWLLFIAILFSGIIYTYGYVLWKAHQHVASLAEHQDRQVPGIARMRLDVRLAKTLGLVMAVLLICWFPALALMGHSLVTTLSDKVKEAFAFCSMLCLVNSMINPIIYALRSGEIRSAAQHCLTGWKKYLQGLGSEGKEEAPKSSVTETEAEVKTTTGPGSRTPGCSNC
Method: Sprague–Dawley rats (n = 5) were anesthetized and sacrificed by decapitation. Spleens and brains were then quickly removed by dissection at 4 °C, and in the case of the brain tissue, the cortex was dissected for the preparation of the membrane homogenates. For this procedure, spleen and cortex samples were homogenized using a Teflon-glass grinder (15 up-and-down strokes at 800 rpm) in 30 volumes of homogenization buffer (1 mM EGTA, 3 mM MgCl2, 50 mM Tris–HCl; pH 7.4) supplemented with […], at 4 °C. The obtained homogenates were centrifuged for 5 min at 1500 rpm. Pellets were removed, and supernatants were centrifuged again for 15 min at 14,000 rpm. For washing, the obtained pellets were resuspended in a buffer and centrifuged again, and the supernatant was removed. The resulting aliquots were stored at −80 °C until use.
To stop the reaction, an ice-cold wash buffer (50 mM Tris–HCl and 0.5% BSA, pH 7.4) was added. Then, the membranes were retained by vacuum filtration to a Whatman GF/C glass microfiber filter (Sigma-Aldrich, St. Louis, MO, USA) and the free radioligand was discarded. Filters with the bound radioligand were transferred to vials containing 5 mL of Ultima Gold cocktail (Revvity, Boston, MA, USA) and measured with a Packard Tri-Carb 2200CA liquid scintillation counter (Revvity, Boston, MA, USA). […]

[3] = biological target: T2, human CB1 receptor (Homo sapiens, UniProt P21554); assay: [35S]GTPγS functional binding assay in CHO cells overexpressing human CB1; format: biochemical; settings: CB1 overexpressing CHO membranes, result in words
T2 construct: purchased Sigma-Aldrich; host or cells: CHO cells
T2 sequence (P21554 whole entry): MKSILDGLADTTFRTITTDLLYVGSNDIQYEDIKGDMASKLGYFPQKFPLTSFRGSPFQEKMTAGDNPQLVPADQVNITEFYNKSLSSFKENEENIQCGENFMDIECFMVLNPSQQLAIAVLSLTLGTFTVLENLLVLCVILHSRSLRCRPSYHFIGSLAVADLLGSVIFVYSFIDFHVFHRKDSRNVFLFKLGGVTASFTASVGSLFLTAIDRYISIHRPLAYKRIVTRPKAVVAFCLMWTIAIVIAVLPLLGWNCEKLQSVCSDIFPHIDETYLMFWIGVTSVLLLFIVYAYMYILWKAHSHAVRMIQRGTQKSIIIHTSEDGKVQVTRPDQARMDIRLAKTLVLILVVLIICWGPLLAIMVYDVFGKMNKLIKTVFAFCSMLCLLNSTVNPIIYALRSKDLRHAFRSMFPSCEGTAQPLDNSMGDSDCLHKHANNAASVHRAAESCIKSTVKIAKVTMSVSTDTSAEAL
Method: The compound with the best affinity was also tested using functional [^35S]-GTPγS binding assays to characterize its activity as an agonist or antagonist/inverse agonist. A protein concentration of 0.1 mg/mL of rat cortex homogenates and a protein concentration of 0.02 mg/mL of commercial CB1 overexpressing CHO cells were used for these assays, suspended in a reaction buffer (Tris–HCl 50 mM, EGTA 1 mM, MgCl2 3 mM, NaCl 100 mM, 0.5% BSA; pH 7.4). The target compound was used in concentrations ranging from 10^–11 to 10^–4 M and incubated for 2 h at 37 °C with agitation in the presence of 0.5 nM [^35S]-GTPγS and 50 μM GDP. Basal coupling of [^35S]-GTPγS to Gi/o proteins was determined by incubating the membrane aliquots with the radioligand in the absence of the target compound. To define nonspecific binding, 10 μM of unlabeled GTPγS was added to the incubation.

[4] = biological target: T3, CB1 receptor (Mus musculus, UniProt P47746); assay: [3H]CP55,940 receptor autoradiography in mouse brain slices; format: binding, Swiss mice; settings: for [3H]CP55,940 binding: mouse, 3 nM [3H]CP55,940 in the presence of compound 10 µM
T3 construct: fresh frozen sections from brain samples from wild-type; from tissue; host or cells: Swiss mouse brain sections
T3 sequence (P47746 whole entry): as the sequence (P20272 whole entry) above, with E95D counted along it
Method: All brain sections were air-dried for 30 min and later immersed in Coplin jars for preincubation in a buffer containing 50 mM Tris–HCl and 1% of BSA (pH 7.4) for 30 min at room temperature. The objective of this preincubation was to remove endogenous ligands. […] Following incubation, tissue slices were washed with an ice-cold preincubation buffer, dipped in distilled water, and dried overnight. To generate autoradiograms, dry sections were placed in hermetically closed cassettes and exposed to β-radiation-sensitive films for 21 days at 4 °C. To calibrate the optical densities to fmol/mg tissue equivalent, [^3H]-microscales were exposed to the films. To quantify the calibrated films after scanning, Fiji software (Bethesda, […], USA) was used.

[5] = nucleus basalis magnocellularis

CCOC(=O)/C=C1\C(=O)Nc2ccc(C)cc2-c2c1c1cc(OC)ccc1n2C(=O)OCC [UVI3502]
activity on CP55,940-evoked [35S]GTPγS stimulation ([1]; rat brain slices, 10 µM, result in words): acts as an antagonist | [35S]GTPγS binding, Stimulation (% over basal), CP55,940 + UVI3502 ([1]; amygdala): -47 ± 30 % over basal | [35S]GTPγS binding, Stimulation (% over basal) ([1]; amygdala): -35 ± 19 % over basal | [35S]GTPγS binding, Stimulation (% over basal), CP55,940 + UVI3502 ([1]; cerebellum (gray matter)): -46 ± 31 % over basal | [35S]GTPγS binding, Stimulation (% over basal) ([1]; cerebellum (gray matter)): -16 ± 51 % over basal | [35S]GTPγS binding, Stimulation (% over basal), CP55,940 + UVI3502 ([1]; cortex): -60 ± 10 % over basal | [35S]GTPγS binding, Stimulation (% over basal) ([1]; cortex): -45 ± 24 % over basal | [35S]GTPγS binding, Stimulation (% over basal), CP55,940 + UVI3502 ([1]; globus pallidus): 89 ± 42 % over basal | [35S]GTPγS binding, Stimulation (% over basal) ([1]; globus pallidus): -3 ± 46 % over basal | [35S]GTPγS binding, Stimulation (% over basal), CP55,940 + UVI3502 ([1]; hippocampus dorsal): -62 ± 6 % over basal | [35S]GTPγS binding, Stimulation (% over basal) ([1]; hippocampus dorsal): -40 ± 26 % over basal | [35S]GTPγS binding, Stimulation (% over basal), CP55,940 + UVI3502 [1, 5]: -40 ± 11 % over basal | [35S]GTPγS binding, Stimulation (% over basal) [1, 5]: -35 ± 30 % over basal | [35S]GTPγS binding, Stimulation (% over basal), CP55,940 + UVI3502 ([1]; striatum): -54 ± 23 % over basal | [35S]GTPγS binding, Stimulation (% over basal) ([1]; striatum): -34 ± 25 % over basal | [35S]GTPγS binding, Stimulation (% over basal), CP55,940 + UVI3502 ([1]; substantia nigra): 14 ± 80 % over basal | [35S]GTPγS binding, Stimulation (% over basal) ([1]; substantia nigra): -41 ± 24 % over basal | IC50 [2]: 10.23 ± 0.0178 µM | maximum inhibition of [3H]CP55,940 binding ([2]; rat spleen membrane homogenates): ~61% | stimulation of [35S]GTPγS binding (coupling of CB1 to Gi/o proteins) [3]: does not; also recorded: did not stimulate the coupling of CB1 receptors to Gi/o proteins | inhibition of [3H]CP55,940 binding in brain areas ([4]; mouse brain slices, 10 µM, result in words): partially inhibit | [3H]CP55,940 binding ([4]; amygdala): 154 ± 8 fmol/mg t.e. | [3H]CP55,940 binding ([4]; cerebellum (gray matter)): 409 ± 207 fmol/mg t.e. | [3H]CP55,940 binding ([4]; cortex): 118 ± 18 fmol/mg t.e. | [3H]CP55,940 binding ([4]; globus pallidus): 698 ± 16 fmol/mg t.e. | [3H]CP55,940 binding ([4]; hippocampus dorsal): 181 ± 9 fmol/mg t.e. | [3H]CP55,940 binding [4, 5]: 202 ± 19 fmol/mg t.e. | [3H]CP55,940 binding ([4]; striatum): 159 ± 11 fmol/mg t.e. | [3H]CP55,940 binding ([4]; substantia nigra): 1075 ± 22 fmol/mg t.e.
